Consider 6 compounds from publication PMC7235764, “Novel Azoles as Antiparasitic Remedies against Brain-Eating Amoebae” (Antibiotics, 2020).

One data set relates to HaCaT cells. The data set can be described thus: Cytotoxicity assay (LDH release) against human cells. Type of data set: cell-based. As to conditions: 50 μM, 24 h, 37 °C. As for the experimental part: Figure 3 Cytotoxic effects of azoles against host cells. Briefly, 50 μM azoles were incubated with HaCaT cells monolayers for 24 h at 37 °C in a 5% CO2 incubator as described in Materials and Methods. […] The data are presented as the mean ± standard error. Cytotoxic effects of the drugs were determined as previously described. 50 μM azole compounds was incubated on HeLa cells for 24 h at 37 °C and 5% CO2 in RPMI-1640 media. The level of lactate dehydrogenase (LDH) enzyme in the RPMI-media which indicates cytotoxic effects of drugs was determined by means of a cytotoxicity detection kit (Roche Applied Science). The percentage cytotoxicity was calculated: [(Absorbance of sample - Absorbance of untreated cells)/(Absorbance for total LDH release - Absorbance of untreated cells)] × 100 = percentage cytotoxicity.

The subject of data set [1] is B. mandrillaris. The data set can be described thus: Amoebistatic assay (growth inhibition on HeLa feeder monolayers) against B. mandrillaris. Type of data set: cell-based, Balamuthia mandrillaris. As to conditions: 24 h; for amoebistatic activity, mean (M): 50 μM, M with SD; for inhibition at 50 µM: Balamuthia mandrillaris, HeLa, untreated amoebae considered as 0%. The protocol: (§1) N. fowleri cells (ATCC 30174) and B. mandrillaris cells (ATCC 50209) were acquired from American Type Culture Collection and cultivated in RPMI-1640 media supplemented with 1% antibiotics with HeLa cell monolayers used as a feeder layer at 37 °C and 5% CO2 as previously cultured. 5 × 10^5 amoebae cells were kept for 24 h at 37 °C and 5% CO2 with 50 μM azole compounds on HeLa monolayers as feeder cells. While positive controls used were amphotericin B and ketoconazole, RPMI-1640 alone was used as negative control and respective solvents were used as solvent control. Trypan blue exclusion assay which consists of using 0.1% trypan blue to distinguish between live (unstained) and dead (stained) cells and count the cells using a haemocytometer.

Data set [2] concerns B. mandrillaris. Briefly: Amoebicidal assay (trypan blue exclusion) against B. mandrillaris. Type of data set: cell-based, Balamuthia mandrillaris. The conditions noted are these: 50 μM, 24 h; for amoebicidal activity, mean (M): M with SD, azole alone (before conjugation); for percentage cell death (amoebicidal activity): negative control considered as 0%. The protocol:
(§2) N. fowleri cells (ATCC 30174) and B. mandrillaris cells (ATCC 50209) were acquired from American Type Culture Collection and cultivated in RPMI-1640 media supplemented with 1% antibiotics with HeLa cell monolayers used as a feeder layer at 37 °C and 5% CO2 as previously cultured.
(§3) Amoebicidal assays were accomplished as formerly explained. Briefly, 5 × 10^5 amoebae cells were kept for 24 h at 37 °C and 5% CO2 with 50 μM azole compounds. While positive controls used were amphotericin B and ketoconazole, RPMI-1640 alone was used as negative control and respective solvents were used as solvent control. Trypan blue exclusion assay, which consists of using 0.1% trypan blue to differentiate between live (unstained) and dead (stained) cells and count the cells using a haemocytometer.

Data set [3] deals with N. fowleri. Briefly: Amoebistatic assay (growth inhibition on HeLa feeder monolayers) against N. fowleri. Type of data set: cell-based, Naegleria fowleri. As to conditions: 24 h; for inhibition at 50 µM: Naegleria fowleri, HeLa, compared to untreated cells; for amoebistatic activity, mean (M): 50 μM, M with SD. As for the experimental part:
as §1

For data set [4], the system named is N. fowleri. Briefly: Amoebicidal assay (trypan blue exclusion) against N. fowleri. Type of data set: cell-based, Naegleria fowleri. The conditions noted are these: 50 μM, 24 h; for amoebicidal activity, mean (M): M with SD, azole alone (before conjugation); for percentage cell death (amoebicidal activity): negative control considered as 0%. The protocol:
as §2, §3

The compound `COc1cc(-c2nc3ccccc3[nH]2)cc(Br)c1OC` [A1, 2-[3-Bromo-4,5-bis(methoxy)phenyl]-1H-benzimidazole] registered a cytotoxicity in the data set on HaCaT cells of 41%. In addition, in the data set with B. mandrillaris [1], the “amoebistatic activity, mean (M)” value is on record as 52.63% and at 50 µM the inhibition was 53%. Moreover, in the data set on B. mandrillaris [2], the “amoebicidal activity, mean (M)” value amounted to 35.62% and the “percentage cell death (amoebicidal activity)” value (“percentage cell death” below) came out at 36%. Also, in the data set with N. fowleri [3], testing at 50 µM gave an inhibition of 20%. In the data set on N. fowleri [4], the “amoebicidal activity, mean (M)” value is recorded as 0% and the “percentage cell death” value is “did not cause amoebicidal activity”.
In the case of `Cc1ccc(-c2nc3ccccc3[nH]2)o1` [A2], the cytotoxicity result in the data set on HaCaT cells is reported as “no cytotoxic activities”. For the same compound, the “amoebistatic activity, mean (M)” value in the data set with B. mandrillaris [1] came out at 70.33%; with N. fowleri [3], 64.31%. In addition, the inhibition at 50 µM came out at 70% in the data set on B. mandrillaris [1] and 64% with N. fowleri [3]. Moreover, the “percentage cell death” value with B. mandrillaris [2] is recorded as “limited amoebicidal activity”; with N. fowleri [4] it was 31%.
For the compound `CC1(C)C/C(=N\NC(=S)Nc2ccccc2Cl)c2cnn(-c3ccccc3)c2C1` [A3, (E)-N-(2-Chlorophenyl)-2-(6,6-dimethyl-1-phenyl-1,5,6,7-tetrahydro-4H-indazol-4-4ylidene)hydrazine-1-carbothioamide], the cytotoxicity with HaCaT cells is 19%. Moreover, the “amoebistatic activity, mean (M)” value with B. mandrillaris [1] turned out to be 55.62%; with N. fowleri [3] it was 75.12%. In addition, the inhibition at 50 µM in the data set with B. mandrillaris [1] came out at 56%; with N. fowleri [3], 75%. Moreover, the “amoebicidal activity, mean (M)” value in the data set on B. mandrillaris [2] is 23.86%. Moreover, the “percentage cell death” value in the data set with B. mandrillaris [2] is on record as 24%; with N. fowleri [4], 39%.
As for `CC1(C)C/C(=N\NC(N)=S)c2cnn(-c3ccccc3)c2C1` [A4, (E)-2-(6,6-Dimethyl-1-phenyl-1,5,6,7-tetrahydro-4H-indazol-4-4ylidene)hydrazine-1-carbothioamide], in the data set with HaCaT cells, the cytotoxicity came out at 5%. In the data set on B. mandrillaris [1], the “amoebistatic activity, mean (M)” value is reported as 64.98% and testing at 50 µM gave an inhibition of 65%. In the data set with B. mandrillaris [2], the “amoebicidal activity, mean (M)” value stood at 1.65% and the “percentage cell death” value is reported as “limited amoebicidal activity”. Besides, in the data set with N. fowleri [3], the “amoebistatic activity, mean (M)” value is reported as 54.70% and testing at 50 µM gave an inhibition of 55%. Further, in the data set with N. fowleri [4], the “amoebicidal activity, mean (M)” value was 72.34% and the “percentage cell death” value is on record as 72%.
Take `Clc1cccc(Cc2nnn[nH]2)c1` [A5, 5-(3-Chlorobenzyl)-1H-tetrazole]: the cytotoxicity in the data set with HaCaT cells was determined as 11%. In addition, in the data set with B. mandrillaris [1], the “amoebistatic activity, mean (M)” value is on record as 51.24% and testing at 50 µM gave an inhibition of 51%. In the data set on B. mandrillaris [2], the “amoebicidal activity, mean (M)” value turned out to be 64.54% and the “percentage cell death” value amounted to 65%. In addition, in the data set with N. fowleri [3], the “amoebistatic activity, mean (M)” value is listed as 62.74% and the inhibition at 50 µM came to 63%. In the data set on N. fowleri [4], the “amoebicidal activity, mean (M)” value was found to be 66.19% and the “percentage cell death” value came to 66%.
In the case of `c1ccc(-c2nnn[nH]2)cc1` [A6, 5-Phenyl-1H-tetrazole], in the data set on HaCaT cells, the cytotoxicity entry is “no cytotoxic activities”. Also, in the data set on B. mandrillaris [1], the “amoebistatic activity, mean (M)” value came to 70.35% and the inhibition at 50 µM is 70%. Besides, in the data set on B. mandrillaris [2], the “amoebicidal activity, mean (M)” value amounted to 30.58% and the “percentage cell death” value is given as 31%. In the data set with N. fowleri [3], the “amoebistatic activity, mean (M)” value was determined as 66.53% and 50 µM produced 67% inhibition. In the data set on N. fowleri [4], the “percentage cell death” value was 45%.

By inhibition is commonly meant the relative decrease from the control value, in per cent. Read a high inhibition as a strong effect.
